Literature values as cited in patent publication US20150272891A1, “DOSAGE FORMS COMPRISING APIXABAN AND MATRIX FORMER” (RATIOPHARM GMBH, priority 2012, published 2015).

Conditions: compared with N-1 form

In the case of `COc1ccc(-n2nc(C(N)=O)c3c2C(=O)N(c2ccc(N4CCCCC4=O)cc2)CC3)cc1` [H2-2 form, 1-(4-methoxyphenyl)-7-oxo-6-[4-(2-oxopiperidin-1-yl)phenyl]-4,5,6,7-tetrahydro-1H-pyrazolo[3,4-c]pyridine-3-carbamide], the “stability of polymorphous form” value is listed as “less stable than the granular, non-solvate N-1 form”.
